System: 186277-243-T-J2-PDC complex spheroids, viability
Assay: Anticancer human tumor 186277-243-T-J2-PDC patient-derived colon adenocarcinoma cell line growth inhibition [RAS]
Settings: for IC50: curve of first compound; for viability, T/C: stronger effect = lower value
How it was run: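 Agents were tested in combination matrices in half-log decrements from a top concentration at or near clinical Cmax (10 microM if undetermined). Targets were multi-cell spheroids of tumour lines plus HUVEC and MSC stromal cells.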
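Further: spheroids exposed to compounds for 7 days before viability read.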

In the case of `C=CC(=O)N1CCN(c2nc(OCC3CCCN3C)nc3c(F)c(-c4nc(N)cc(C)c4C(F)(F)F)c(Cl)cc23)C(C)C1` (centres undefined) + CCn1c(-c2cccnc2C(C)OC)c2c3cc(ccc31)N1CCOC(CC(NC(=O)C(C(C)C)N(C)C(=O)C3(F)CCN(C(=O)C#CC(C)(C)N(C)C)CC3)C(=O)N3CCCC(N3)C(=O)OCC(C)(C)C2)C1, the IC50 (second compound 0.000949 µM) is reported as greater than 1000 nM, the IC50 (second compound 0.003 µM) is reported as greater than 1000 nM and the IC50 (second compound 0.00949 µM) is reported as greater than 1000 nM. It also gave an IC50 (second compound 0.03 µM) greater than 1000 nM, an IC50 (second compound 0.0949 µM) greater than 1000 nM and an IC50 (second compound 0.3 µM) greater than 1000 nM. The viability, T/C (second compound 0.000949 µM, first compound 0.00316 µM) was 88.7%, the viability, T/C (second compound 0.000949 µM, first compound 0.01 µM) was 79% and the viability, T/C (second compound 0.000949 µM, first compound 0.0316 µM) was 89.2%. The viability, T/C (second compound 0.000949 µM, first compound 0.1 µM) was 80.8%, the viability, T/C (second compound 0.000949 µM, first compound 0.316 µM) was 95.6% and the viability, T/C (second compound 0.000949 µM, first compound 1 µM) was 96.6%. The viability, T/C (second compound 0.003 µM, first compound 0.00316 µM) was 88%, the viability, T/C (second compound 0.003 µM, first compound 0.01 µM) was 97.6% and the viability, T/C (second compound 0.003 µM, first compound 0.0316 µM) was 83.4%. The viability, T/C (second compound 0.003 µM, first compound 0.1 µM) was 102%, the viability, T/C (second compound 0.003 µM, first compound 0.316 µM) was 94.1% and the viability, T/C (second compound 0.003 µM, first compound 1 µM) was 111%. It also gave a viability, T/C (second compound 0.00949 µM, first compound 0.00316 µM) of 91.6%, a viability, T/C (second compound 0.00949 µM, first compound 0.01 µM) of 102% and a viability, T/C (second compound 0.00949 µM, first compound 0.0316 µM) of 104%. The viability, T/C (second compound 0.00949 µM, first compound 0.1 µM) was 106%, the viability, T/C (second compound 0.00949 µM, first compound 0.316 µM) was 98.6% and the viability, T/C (second compound 0.00949 µM, first compound 1 µM) was 98.3%. The viability, T/C (second compound 0.03 µM, first compound 0.00316 µM) was 81.4%, the viability, T/C (second compound 0.03 µM, first compound 0.01 µM) was 105% and the viability, T/C (second compound 0.03 µM, first compound 0.0316 µM) was 95.8%. The viability, T/C (second compound 0.03 µM, first compound 0.1 µM) was 107%, the viability, T/C (second compound 0.03 µM, first compound 0.316 µM) was 116% and the viability, T/C (second compound 0.03 µM, first compound 1 µM) was 91.7%. For the same compound, the viability, T/C (second compound 0.0949 µM, first compound 0.00316 µM) was 85.3%, the viability, T/C (second compound 0.0949 µM, first compound 0.01 µM) was 109% and the viability, T/C (second compound 0.0949 µM, first compound 0.0316 µM) was 121%. For the same compound, the viability, T/C (second compound 0.0949 µM, first compound 0.1 µM) was 106%, the viability, T/C (second compound 0.0949 µM, first compound 0.316 µM) was 95.6% and the viability, T/C (second compound 0.0949 µM, first compound 1 µM) was 93.7%. The viability, T/C (second compound 0.3 µM, first compound 0.00316 µM) was 98.2%, the viability, T/C (second compound 0.3 µM, first compound 0.01 µM) was 93.7% and the viability, T/C (second compound 0.3 µM, first compound 0.0316 µM) was 111%. For the same compound, the viability, T/C (second compound 0.3 µM, first compound 0.1 µM) was 97.5%, the viability, T/C (second compound 0.3 µM, first compound 0.316 µM) was 114% and the viability, T/C (second compound 0.3 µM, first compound 1 µM) was 99.7%.

For `CC1(C)CCC(Nc2ncc(C(F)(F)F)c(-c3c[nH]c4c(P(C)(C)=O)c(C#N)ccc34)n2)CN1` (centres undefined) + CCn1c(-c2cccnc2C(C)OC)c2c3cc(ccc31)N1CCOC(CC(NC(=O)C(C(C)C)N(C)C(=O)C3(F)CCN(C(=O)C#CC(C)(C)N(C)C)CC3)C(=O)N3CCCC(N3)C(=O)OCC(C)(C)C2)C1, the IC50 (second compound 0.000949 µM) was greater than 300 nM, the IC50 (second compound 0.003 µM) was 236 nM and the IC50 (second compound 0.00949 µM) was greater than 300 nM. It also gave an IC50 (second compound 0.03 µM) greater than 300 nM, an IC50 (second compound 0.0949 µM) of 135 nM and an IC50 (second compound 0.3 µM) of 36.1 nM. It also gave a viability, T/C (second compound 0.000949 µM, first compound 0.000949 µM) of 79.3%, a viability, T/C (second compound 0.000949 µM, first compound 0.003 µM) of 84.8% and a viability, T/C (second compound 0.000949 µM, first compound 0.00949 µM) of 112%. The viability, T/C (second compound 0.000949 µM, first compound 0.03 µM) was 81.5%, the viability, T/C (second compound 0.000949 µM, first compound 0.0949 µM) was 57.9% and the viability, T/C (second compound 0.000949 µM, first compound 0.3 µM) was 51.6%. It also gave a viability, T/C (second compound 0.003 µM, first compound 0.000949 µM) of 100%, a viability, T/C (second compound 0.003 µM, first compound 0.003 µM) of 90.2% and a viability, T/C (second compound 0.003 µM, first compound 0.00949 µM) of 103%. For the same compound, the viability, T/C (second compound 0.003 µM, first compound 0.03 µM) was 83.5%, the viability, T/C (second compound 0.003 µM, first compound 0.0949 µM) was 58.6% and the viability, T/C (second compound 0.003 µM, first compound 0.3 µM) was 47.4%. For the same compound, the viability, T/C (second compound 0.00949 µM, first compound 0.000949 µM) was 104%, the viability, T/C (second compound 0.00949 µM, first compound 0.003 µM) was 104% and the viability, T/C (second compound 0.00949 µM, first compound 0.00949 µM) was 103%. It also gave a viability, T/C (second compound 0.00949 µM, first compound 0.03 µM) of 85.6%, a viability, T/C (second compound 0.00949 µM, first compound 0.0949 µM) of 56.3% and a viability, T/C (second compound 0.00949 µM, first compound 0.3 µM) of 50.5%. The viability, T/C (second compound 0.03 µM, first compound 0.000949 µM) was 92%, the viability, T/C (second compound 0.03 µM, first compound 0.003 µM) was 98.6% and the viability, T/C (second compound 0.03 µM, first compound 0.00949 µM) was 108%. It also gave a viability, T/C (second compound 0.03 µM, first compound 0.03 µM) of 85.1%, a viability, T/C (second compound 0.03 µM, first compound 0.0949 µM) of 57.9% and a viability, T/C (second compound 0.03 µM, first compound 0.3 µM) of 49.7%. For the same compound, the viability, T/C (second compound 0.0949 µM, first compound 0.000949 µM) was 107%, the viability, T/C (second compound 0.0949 µM, first compound 0.003 µM) was 103% and the viability, T/C (second compound 0.0949 µM, first compound 0.00949 µM) was 91.9%. For the same compound, the viability, T/C (second compound 0.0949 µM, first compound 0.03 µM) was 71.1%, the viability, T/C (second compound 0.0949 µM, first compound 0.0949 µM) was 53.3% and the viability, T/C (second compound 0.0949 µM, first compound 0.3 µM) was 43.3%. It also gave a viability, T/C (second compound 0.3 µM, first compound 0.000949 µM) of 102%, a viability, T/C (second compound 0.3 µM, first compound 0.003 µM) of 96.3% and a viability, T/C (second compound 0.3 µM, first compound 0.00949 µM) of 87.8%. For the same compound, the viability, T/C (second compound 0.3 µM, first compound 0.03 µM) was 51.9%, the viability, T/C (second compound 0.3 µM, first compound 0.0949 µM) was 36.8% and the viability, T/C (second compound 0.3 µM, first compound 0.3 µM) was 30.8%.

From PubChem BioAssay AID2060908 (Molecular Pharmacology Branch, DTP, NCI, 2025)
